Assay results as given in publication PMC9134086, “Inhibition of Dipeptidyl Peptidase-4 by Flavonoids: Structure–Activity Relationship, Kinetics and Interaction Mechanism” (Frontiers in Nutrition, 2022).

Biological target: T1, DPP-4 (human recombinant) (Homo sapiens, UniProt P27487)
T1 construct: purchased Sigma Aldrich D3446
Assay: Fluorescence quenching experiments (Stern-Volmer, binding constant, thermodynamic parameters);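 further: intrinsic DPP-4 fluorescence emission scanned 290–500 nm, corrected for flavonoid background and inner-filter absorbance, compared without versus with flavonoid quencher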
Conditions: 310 K

T1 sequence (P27487 whole entry): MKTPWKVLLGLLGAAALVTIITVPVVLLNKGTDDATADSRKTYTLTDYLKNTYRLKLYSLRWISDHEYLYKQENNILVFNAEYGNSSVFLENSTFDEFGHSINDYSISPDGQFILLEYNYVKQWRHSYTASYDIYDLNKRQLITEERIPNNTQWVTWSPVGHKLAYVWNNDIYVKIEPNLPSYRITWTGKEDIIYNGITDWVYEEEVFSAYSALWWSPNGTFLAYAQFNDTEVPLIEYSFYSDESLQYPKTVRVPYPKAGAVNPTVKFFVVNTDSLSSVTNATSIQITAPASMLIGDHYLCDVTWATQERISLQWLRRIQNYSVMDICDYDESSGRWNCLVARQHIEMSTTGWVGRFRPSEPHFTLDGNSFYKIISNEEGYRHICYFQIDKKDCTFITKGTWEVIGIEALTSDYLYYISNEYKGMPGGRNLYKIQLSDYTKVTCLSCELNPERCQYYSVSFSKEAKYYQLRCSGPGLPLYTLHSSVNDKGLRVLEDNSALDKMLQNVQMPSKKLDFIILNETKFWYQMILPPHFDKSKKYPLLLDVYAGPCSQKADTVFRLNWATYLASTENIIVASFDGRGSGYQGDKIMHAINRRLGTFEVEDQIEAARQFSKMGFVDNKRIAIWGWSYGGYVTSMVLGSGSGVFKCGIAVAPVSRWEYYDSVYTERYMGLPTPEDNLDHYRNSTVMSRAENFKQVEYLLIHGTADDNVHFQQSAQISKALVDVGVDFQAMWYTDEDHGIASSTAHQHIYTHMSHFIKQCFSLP

Compound | ΔG (Gibbs free-energy change) [kcal/mol]
O=c1c(O)c(-c2cc(O)c(O)c(O)c2)oc2cc(O)cc(O)c12 [E19, Myricetin] | -5.946

Biological target: T1, DPP-4 (human recombinant)
Assay: In vitro assay for DPP-4 inhibitory activity (fluorescence, Gly-Pro-AMC);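 further: fluorescence of released AMC (excitation 360 nm, emission 460 nm) followed kinetically over 30 min at 37 °C in Tris-HCl pH 8.0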
Assay type: biochemical
Conditions: DPP-4 inhibition, fluorescence method

Compound | IC50 [µM]
O=c1c(O)c(-c2cc(O)c(O)c(O)c2)oc2cc(O)cc(O)c12 [E19, Myricetin] | < 200

Same assay, conditions: flavonoid 200 μM; mean ± SD, three independent experiments

Compound | % Inhibition at 200μM [%]
Myricitrin [E20] | 39.8 ± 0.78
COc1ccc(CCC(=O)c2c(O)cc(O[C@@H]3O[C@H](CO)[C@@H](O)[C@H](O)[C@H]3O[C@@H]3O[C@@H](C)[C@H](O)[C@@H](O)[C@H]3O)cc2O)cc1O [G2, Neosperidin dihydrochalcone] | 17.15 ± 0.23

Same assay, conditions: flavonoid 200 μM; mean ± SD, three independent experiments; read-out: % Inhibition at 200μM

Compound | inhibition at 200 µM [%]
CC1OC(OCC2OC(Oc3c(-c4ccc(O)cc4)oc4cc(O)cc(O)c4c3=O)C(O)C(O)C2O)C(O)C(O)C1O (centres unmarked) [E14, Kaempferol 3-O-rutinoside] | 36.83 ± 0.01
Oc1cc(O)c2c(c1)OC(c1ccc(O)c(O)c1)C(O)C2 (centres unmarked) [D1, Catechin] | < 10
COc1ccc(-c2coc3cc(O)ccc3c2=O)cc1O [B2, Calycosin] | 43 ± 2.41
O=C1C[C@@H](c2ccc(O)cc2)Oc2cc(O)ccc21 [C5, Liquiritigenin] | 17.1 ± 0.94
COc1ccc(-c2coc3cc(O)ccc3c2=O)cc1 [B4, Formononetin] | 17.6 ± 0.19
CC1OC(Oc2cc(O)c3c(=O)c(O)c(-c4ccc(O)c(O)c4)oc3c2)C(O)C(O)C1O (centres unmarked) [E25, Quercetin 7-O-rhamnoside] | 48.96 ± 0.12
COc1ccc(-c2cc(=O)c3c(O)cc(O[C@@H]4O[C@H](CO[C@@H]5O[C@@H](C)[C@H](O)[C@@H](O)[C@H]5O)[C@@H](O)[C@H](O)[C@H]4O)cc3o2)cc1O [A5, Diosmin] | 16.4 ± 1.73
Oc1cc(O)c2cc(O)c(-c3ccc(O)c(O)c3)[o+]c2c1 [F1, Cyanidin] | 18.8 ± 0.4
O=c1c(O)c(-c2ccc(O)cc2O)oc2cc(O)cc(O)c12 [E18, Morin] | 42.8 ± 0.91
O=c1c(O[C@@H]2O[C@@H](CO)[C@H](O)[C@H]2O)c(-c2ccc(O)c(O)c2)oc2cc(O)cc(O)c12 [E1, Avicularin] | 27.1 ± 0.42
O=c1cc(-c2ccccc2)oc2cc(O)cc(O)c12 [A3, Chrysin] | 26.1 ± 3.07
Oc1cc(O)c2c(c1)O[C@H](c1ccc(O)c(O)c1)[C@H](O)C2 [D2, Epicatechin] | < 10
Oc1ccc(-c2[o+]c3cc(O)cc(O)c3cc2O)cc1 [F5, Pelargonidin] | < 10
O=c1c(O[C@@H]2O[C@H](CO)[C@@H](O)[C@H](O)[C@H]2O)c(-c2ccc(O)c(O)c2)oc2cc(O)cc(O)c12 [E5, Isoquercitrin] | 36.9 ± 1.13
C[C@@H]1O[C@@H](Oc2c(-c3ccc(O)c(O)c3)oc3cc(O)cc(O)c3c2=O)[C@H](O)[C@H](O)[C@H]1O [E26, Quercitrin] | 47.65 ± 0.36
O=c1c(OC2OC(CO)C(O)C(O)C2O)c(-c2ccc(O)c(O)c2)oc2cc(OC3OC(COC4OC(CO)C(O)C(O)C4O)C(O)C(O)C3O)cc(O)c12 (centres unmarked) [E24, Quercetin 3-O-glu-7-O-gentiobioside] | 33.9 ± 1.07
O=c1cc(-c2ccc(OC3OC(CO)C(O)C(O)C3O)cc2)oc2c(C3OC(CO)C(O)C(O)C3O)c(O)cc(O)c12 (centres unmarked) [A16, Vitexin 4'-O-glucoside] | 45.9 ± 1.48
COc1cc(-c2[o+]c3cc(O)cc(OC4OC(CO)C(O)C(O)C4O)c3cc2OC2OC(CO)C(O)C(O)C2O)cc(OC)c1O (centres unmarked) [F4, Malvin] | 13.7 ± 2.07
COc1cc(-c2oc3cc(O)cc(O)c3c(=O)c2OC2OC(CO)C(O)C(O)C2OC2OC(C)C(O)C(O)C2O)ccc1O (centres unmarked) [E8, Isorhamnetin 3-O-neohesperidin] | 40.6 ± 0.42
O=c1c(O)c(-c2ccc(OC3OC(CO)C(O)C(O)C3O)cc2)oc2cc(O)cc(O)c12 (centres unmarked) [E16, Kaempferol 4'-O-glucoside] | 37.2 ± 0.64
COc1c(-c2ccc(O)c(O)c2)oc2cc(O)cc(O)c2c1=O [E22, 3-O-Methylquercetin] | 45.6 ± 0.78
O=C(O)C1OC(Oc2cc(O)c3c(=O)cc(-c4ccc(O)c(O)c4)oc3c2)C(O)C(O)C1O (centres unmarked) [A9, Luteolin 7-O-glucuronide] | 35.65 ± 0.11
C[C@@H]1O[C@@H](OC[C@H]2O[C@@H](Oc3c(-c4ccc(O)c(O)c4)oc4cc(O)cc(O)c4c3=O)[C@H](O)[C@@H](O)[C@@H]2O)[C@H](O)[C@H](O)[C@H]1O [E28, Rutin] | 42.7 ± 1.28

Compound | inhibition at 200 µM [%]
COc1cc(O)c2c(=O)cc(-c3ccc(O)cc3)oc2c1 [B6, Genkwanin] | 20.8 ± 1.92
O=c1c(-c2ccc(O)cc2)coc2cc(O)cc(O)c12 [B5, Genistein] | 15.3 ± 0.21
O=c1c(-c2ccc(O)cc2)coc2cc(O)ccc12 [B3, Daidzein] | 19.2 ± 3.44
COc1cc(O)c2c(=O)c(O)c(-c3ccc(O)c(O)c3)oc2c1 [E27, Rhamnetin] | 22.2 ± 0.63
O=c1c(O)c(-c2ccccc2)oc2cc(O)cc(O)c12 [E2, Galangin] | 38.26 ± 0.36
O=c1cc(-c2ccc(O)c(O)c2)oc2cc(O[C@@H]3O[C@H](CO)[C@@H](O)[C@H](O)[C@H]3O)cc(O)c12 [A10, Luteoloside] | 45.6 ± 0.62
COc1ccc(-c2oc3cc(O)cc(O)c3c(=O)c2O)cc1 [E9, Kaempferide] | 15.7 ± 0.58
C[C@@H]1O[C@@H](Oc2cc(O)c3c(=O)c(O[C@@H]4O[C@@H](C)[C@H](O)[C@@H](O)[C@H]4O)c(-c4ccc(O)cc4)oc3c2)[C@H](O)[C@H](O)[C@H]1O [E10, Kaempferitrin] | 19.3 ± 0.47
COc1ccc([C@@H]2CC(=O)c3c(O)cc(O)cc3O2)cc1O [C3, Hesperetin] | < 10
O=C1c2c(O)cc(O)cc2O[C@H](c2cc(O)c(O)c(O)c2)[C@H]1O [C2, Dihydromyricetin] | 20.6 ± 0.36
COc1ccc(-c2cc(=O)c3c(O)cc(O)cc3o2)cc1O [A4, Diosmetin] | 22.2 ± 1.22
O=C(CCc1ccc(O)cc1)c1c(O)cc(O)cc1O[C@@H]1O[C@H](CO)[C@@H](O)[C@H](O)[C@H]1O [G4, Phlorizin] | < 10
O=c1c(O)c(-c2ccc(O)cc2)oc2cc(O)cc(O)c12 [E11, Kaempferol] | 32.23 ± 0.19
O=C(O[C@@H]1Cc2c(O)cc(O)cc2O[C@@H]1c1cc(O)c(O)c(O)c1)c1cc(O)c(O)c(O)c1 [D3, Epigallocatechin gallate] | < 10
COc1cc(-c2oc3cc(O)cc(O)c3c(=O)c2OC2OC(CO)C(O)C(O)C2O)ccc1O (centres unmarked) [E7, Isorhamnetin 3-O-glucoside] | 38.6 ± 1.41
COc1ccc(-c2coc3cc(O)cc(O)c3c2=O)cc1 [B1, Biochanin A] | 14.3 ± 1.48
O=c1cc(-c2ccc(O)cc2)oc2cc(O)c([C@@H]3O[C@H](CO)[C@@H](O)[C@H](O)[C@H]3O)c(O)c12 [A7, Isovitexin] | 42.4 ± 1.23
O=c1c(OC2OC(CO)C(O)C(O)C2O)c(-c2ccc(O)cc2)oc2cc(O)cc(O)c12 (centres unmarked) [E13, Kaempferol 3-O-galactoside] | 46.3 ± 1.57
COc1ccc(-c2cc(=O)c3c(OC)c(OC)c(OC)c(OC)c3o2)cc1 [A13, Tangeretin] | 14.2 ± 1.06
O=c1cc(-c2ccc(O)c(O)c2)oc2cc(O)cc(O)c12 [A8, Luteolin] | 47.5 ± 0.89
O=c1c(OC2OC(CO)C(O)C(O)C2OC2OC(CO)C(O)C(O)C2O)c(-c2ccc(O)cc2)oc2cc(O)cc(O)c12 (centres unmarked) [E15, Kaempferol 3-O-sophoroside] | 43.2 ± 1.48
O=c1cc(-c2ccc(O)c(O)c2)oc2cc(O)c([C@@H]3O[C@H](CO)[C@@H](O)[C@H](O)[C@H]3O)c(O)c12 [A6, Isoorientin] | 42.63 ± 0.33
O=C1c2c(O)cc(O)cc2O[C@H](c2ccc(O)cc2O)[C@H]1O [C1, Dihydromorin] | 30.9 ± 1.22

Same assay, conditions: read-out: % Inhibition at 200μM

Compound | inhibition at 200 µM [%]
COc1cc(-c2oc3cc(O)cc(O)c3c(=O)c2O)ccc1O [E6, Isorhamnetin] | 29.4 ± 1.52
O=c1cc(-c2ccc(O)cc2)oc2c([C@@H]3O[C@H](CO)[C@@H](O)[C@H](O)[C@H]3O)c(O)cc(O)c12 [A14, Vitexin] | 27 ± 1.35
O=c1cc(-c2ccc(O)c(O)c2)oc2c([C@@H]3O[C@H](CO)[C@@H](O)[C@H](O)[C@H]3O)c(O)cc(O)c12 [A12, Orientin] | 38.6 ± 2.1
COc1cc(-c2[o+]c3cc(O)cc(O)c3cc2OC2OC(CO)C(O)C(O)C2O)cc(OC)c1O (centres unmarked) [F3, Malvidin 3-O-glucoside] | 15 ± 2.42
COc1ccc(C2CC(=O)c3c(O)cc(OC4OC(COC5OC(C)C(O)C(O)C5O)C(O)C(O)C4O)cc3O2)cc1O (centres unmarked) [C4, Hesperidin] | < 10
O=C(CCc1ccc(O)cc1)c1c(O)cc(O)cc1O [G3, Phloretin] | 17.8 ± 1.21
O=c1c(O)c(-c2ccc(O)cc2)oc2cc(OC3OC(CO)C(O)C(O)C3O)cc(O)c12 (centres unmarked) [E17, Kaempferol 7-O-glucoside] | 48.8 ± 1.07
O=c1c(O)c(-c2ccc(O)cc2)oc2c(O)c(O)cc(O)c12 [E3, Herbacetin] | 25.7 ± 1.82
C[C@@H]1O[C@@H](OC[C@H]2O[C@@H](Oc3cc(O)c4c(c3)O[C@H](c3ccc(O)cc3)CC4=O)[C@H](O)[C@@H](O)[C@@H]2O)[C@H](O)[C@H](O)[C@H]1O [A11, Narirutin] | 13.97 ± 0.13
